Test results published in patent US7157580B2, “Aminopyrimidine and aminopyridine anti-inflammation agents” (Roche Palo Alto LLC, priority 2001, dated 2007).

- melting point: 203.6 to 206 °C
SMILES: Cn1cncc1-c1cc(/C=N/N(CCC(C)(C)O)C(N)=S)nc(NC2CCN(S(C)(=O)=O)CC2)n1 [Compound 96, 2-(1-methanesulfonyl-piperidin-4-ylamino)-6-(1-methyl-1H-imidazol-5-yl)-pyrimidine-4-carbaldehyde 2-(2-hydroxy-2-methyl-but-4-yl)-thiosemicarbazone]
